Reference: patent US20230399312A1, “SUBSTITUTED PYRIMIDINES AND METHODS OF USE” (THERAVANCE BIOPHARMA R&D IP, LLC, priority 2020, published 2023)

Experiments:
[1] = molecular target: T1, recombinant human ALK5 (TGF-βR1) protein (Homo sapiens, UniProt P36897); experiment: Biochemical ALK5 (TGF-βR1) assay to measure pKi (LANCE Ultra ULight kinase assay); settings: apparent pKi, converted from pIC50 by Cheng-Prusoff
T1 construct: purchased Life Technologies PR9075A
T1 sequence (P36897 34-503): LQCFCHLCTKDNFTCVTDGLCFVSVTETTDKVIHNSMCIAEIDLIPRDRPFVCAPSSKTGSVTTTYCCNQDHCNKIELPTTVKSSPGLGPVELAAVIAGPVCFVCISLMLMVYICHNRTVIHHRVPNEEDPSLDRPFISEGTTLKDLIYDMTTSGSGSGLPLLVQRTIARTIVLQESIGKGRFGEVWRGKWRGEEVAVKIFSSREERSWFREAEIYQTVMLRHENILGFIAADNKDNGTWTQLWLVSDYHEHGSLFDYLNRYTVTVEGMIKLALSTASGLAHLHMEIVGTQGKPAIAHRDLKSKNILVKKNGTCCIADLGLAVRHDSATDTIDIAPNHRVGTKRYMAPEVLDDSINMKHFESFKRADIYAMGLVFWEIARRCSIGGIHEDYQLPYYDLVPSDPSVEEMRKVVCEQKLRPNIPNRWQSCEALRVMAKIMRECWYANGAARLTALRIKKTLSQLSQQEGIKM
Method in brief: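 Read-out was LANCE Ultra TR-FRET with a europium anti-phospho-Topo IIα Thr1342 antibody after EDTA quench. Kinase reaction ran 60 min at 37 °C with ATP added from a 125 μM 5× stock, after 60 min compound–enzyme equilibration at room temperature. Values are pKi from Cheng-Prusoff conversion of fitted pIC50.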

[2] = system: TGF-β-stimulated SMAD3 phosphorylation in BEAS-2B cells; experiment: Cellular ALK5 potency assay, inhibition of TGF-β stimulated pSMAD3 formation in BEAS-2B cells; format: cell-based; settings: Homo sapiens, pSMAD3, TGF-β 10 ng/mL, read-out: BEAS2B pIC50 (converted)
Method in brief: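 Human lung epithelial BEAS-2B cells were pre-treated with compound for 1 h at 37 °C, then stimulated with TGF-β (final 10 ng/mL) for 30 min before lysis. pSMAD3 was quantified by AlphaLISA and pIC50 derived from dose-dependent signal change versus TGF-β-stimulated untreated cells.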

Row | Ki [1] [nM] | Compound | IC50 [2] [nM]
1 | 0.0398 to 0.316 | CN1CCN(C2CCN(c3ccc(Nc4nccc(Nc5ccnc(-c6cc(Cl)ccc6F)n5)n4)cc3)CC2)CC1 [Compound 436, N4-[2-(5-chloro-2-fluoro-phenyl)pyrimidin-4-yl]-N2-[4-[4-(4-methylpiperazin-1-yl)-1-piperidyl]phenyl]pyrimidine-2,4-diamine] | 25.1 to 158
2 | 0.398 to 3.16 | COC(=O)c1cnc(-c2cccc(C)n2)nc1Nc1ccnc(Nc2ccc(N)cc2)n1 [Compound 437, methyl 4-[[2-(4-aminoanilino)pyrimidin-4-yl]amino]-2-(6-methyl-2-pyridyl)pyrimidine-5-carboxylate] | 25.1 to 158
3 | 0.0398 to 0.316 | Cc1cccc(-c2nccc(Nc3ccnc(Nc4ccc(CN5CC(C)(N)C5)cc4)n3)n2)n1 [Compound 438, N2-[4-[(3-amino-3-methyl-azetidin-1-yl)methyl]phenyl]-N4-[2-(6-methyl-2-pyridyl)pyrimidin-4-yl]pyrimidine-2,4-diamine] | 25.1 to 158
4 | 0.398 to 3.16 | Cc1cccc(-c2nccc(Nc3ccnc(Nc4ccc(C(=O)O)s4)n3)n2)n1 [Compound 439, 5-[[4-[[2-(6-methyl-2-pyridyl)pyrimidin-4-yl]amino]pyrimidin-2-yl]amino]thiophene-2-carboxylic acid] | 200 to 1260
5 | 0.0398 to 0.316 | Cc1cccc(-c2nccc(Nc3ccnc(Nc4ccc(-c5cnn(CCN)c5)cc4)n3)n2)n1 [Compound 440, N2-[4-[1-(2-aminoethyl)pyrazol-4-yl]phenyl]-N4-[2-(6-methyl-2-pyridyl)pyrimidin-4-yl]pyrimidine-2,4-diamine] | 25.1 to 158
6 | 0.0398 to 0.316 | Cc1cccc(-c2nccc(Nc3ccnc(Nc4ccc(NS(=O)(=O)N(C)C5CCNCC5)cc4)n3)n2)n1 [Compound 441, 4-[[2-[4-[[methyl(4-piperidyl)sulfamoyl]amino]anilino]pyrimidin-4-yl]amino]-2-(6-methyl-2-pyridyl)pyrimidine] | 25.1 to 158
7 | 0.398 to 3.16 | COC(=O)Cc1ccc(Nc2nccc(Nc3ccnc(-c4cccc(C)n4)n3)n2)cc1 [Compound 442, methyl 2-[4-[[4-[[2-(6-methyl-2-pyridyl)pyrimidin-4-yl]amino]pyrimidin-2-yl]amino]phenyl]acetate] | 25.1 to 158
8 | 0.0398 to 0.316 | Cc1cccc(-c2nccc(Nc3ccnc(Nc4cccc(NC(=O)C5CCCNC5)c4)n3)n2)n1 (centres unmarked) [Compound 443, N-(3-((4-((2-(6-methylpyridin-2-yl)pyrimidin-4-yl)amino)pyrimidin-2-yl)amino)phenyl)piperidine-3-carboxamide] | ≤ 20
9 | 0.0398 to 0.316 | Cc1cccc(-c2nccc(Nc3ccnc(Nc4ccc(CN5CCCC(C(=O)O)C5)cc4)n3)n2)n1 (centres unmarked) [Compound 444, 1-[[4-[[4-[[2-(6-methyl-2-pyridyl)pyrimidin-4-yl]amino]pyrimidin-2-yl]amino]phenyl]methyl] piperidine-3-carboxylic acid] | 25.1 to 158
10 | 0.0398 to 0.316 | Cc1cccc(-c2nccc(Nc3ccnc(Nc4ccc(N5CCNCC5)c(Cl)c4)n3)n2)n1 [Compound 445, N2-(3-chloro-4-piperazin-1-yl-phenyl)-N4-[2-(6-methyl-2-pyridyl)pyrimidin-4-yl]pyrimidine-2,4-diamine] | 25.1 to 158
11 | 0.398 to 3.16 | CN1CCN(C2CCN(c3ccc(Nc4nccc(Nc5ccnc(-c6ccccc6F)n5)n4)cc3)CC2)CC1 [Compound 446, N4-[2-(2-fluorophenyl)pyrimidin-4-yl]-N2-[4-[4-(4-methylpiperazin-1-yl)-1-piperidyl]phenyl]pyrimidine-2,4-diamine] | 25.1 to 158
12 | 0.0398 to 0.316 | Cc1cccc(-c2nccc(Nc3ccnc(Nc4ccc(N5CCNCC5)c(C#N)c4)n3)n2)n1 [Compound 447, 5-[[4-[[2-(6-methyl-2-pyridyl)pyrimidin-4-yl]amino]pyrimidin-2-yl]amino]-2-piperazin-1-yl-benzonitrile] | 25.1 to 158
13 | 0.0398 to 0.316 | Cc1cccc(-c2nccc(Nc3ccnc(Nc4ccc(N5CCN(C(CCO)C(=O)O)CC5)cc4)n3)n2)n1 (centres unmarked) [Compound 448, 4-hydroxy-2-[4-[4-[[4-[[2-(6-methyl-2-pyridyl)pyrimidin-4-yl]amino]pyrimidin-2-yl]amino]phenyl]piperazin-1-yl]butanoic acid] | 25.1 to 158
14 | 0.0398 to 0.316 | CC[C@H](C)OC(=O)CC1CNCCN1c1ccc(Nc2nccc(Nc3ccnc(-c4cccc(C)n4)n3)n2)cc1 (stereo partly drawn) [Compound 449, [(1S)-1-methylpropyl] 2-[1-[4-[[4-[[2-(6-methyl-2-pyridyl)pyrimidin-4-yl]amino]pyrimidin-2-yl]amino]phenyl]piperazin-2-yl]acetate] | 25.1 to 158
15 | 0.0398 to 0.316 | Cc1cccc(-c2nccc(Nc3ccnc(Nc4ccc(N5CCC(NCc6ccccc6)CC5)cc4)n3)n2)n1 [Compound 450, N2-[4-[4-(benzylamino)-1-piperidyl]phenyl]-N4-[2-(6-methyl-2-pyridyl)pyrimidin-4-yl]pyrimidine-2,4-diamine] | 200 to 1260
16 | 0.0398 to 0.316 | COC(=O)CC1CN(Cc2ccc(Nc3nccc(Nc4ccnc(-c5cccc(C)n5)n4)n3)cc2)CCN1 (centres unmarked) [Compound 451, methyl 2-[4-[[4-[[4-[[2-(6-methyl-2-pyridyl)pyrimidin-4-yl]amino]pyrimidin-2-yl]amino]phenyl]methyl]piperazin-2-yl]acetate] | 25.1 to 158
17 | 0.0398 to 0.316 | Cc1cccc(-c2nccc(Nc3ccnc(Nc4csc(NC(=O)C5CCNCC5)c4)n3)n2)n1 [Compound 452, N-(4-((4-((2-(6-methylpyridin-2-yl)pyrimidin-4-yl)amino)pyrimidin-2-yl)amino)thiophen-2-yl)piperidine-4-carboxamide] | ≤ 20
18 | 0.0398 to 0.316 | Cc1cccc(-c2nccc(Nc3ccnc(Nc4ccc(CN5C[C@H](C)NC[C@@H]5C)cc4)n3)n2)n1 [Compound 453, N2-[4-[[(2S,5S)-2,5-dimethylpiperazin-1-yl]methyl]phenyl]-N4-[2-(6-methyl-2-pyridyl)pyrimidin-4-yl]pyrimidine-2,4-diamine] | 25.1 to 158
19 | 0.0398 to 0.316 | Cc1cccc(-c2nccc(Nc3ccnc(Nc4ccc(N5CCCC(C(=O)O)C5)cc4)n3)n2)n1 (centres unmarked) [Compound 454, 1-[4-[[4-[[2-(6-methyl-2-pyridyl)pyrimidin-4-yl]amino]pyrimidin-2-yl]amino]phenyl]piperidine-3-carboxylic acid] | 200 to 1260
20 | 0.398 to 3.16 | Cc1cccc(-c2nccc(Nc3ccnc(Nc4ccc(NS(=O)(=O)c5c[nH]cn5)cc4)n3)n2)n1 [Compound 455, N-[4-[[4-[[2-(6-methyl-2-pyridyl)pyrimidin-4-yl]amino]pyrimidin-2-yl]amino]phenyl]-1H-imidazole-4-sulfonamide] | 200 to 1260
21 | 0.0398 to 0.316 | Cc1cccc(-c2nccc(Nc3ccnc(Nc4ccc(N5CCN(C6CC6)CC5)cc4)n3)n2)n1 [Compound 457, N2-[4-(4-cyclopropylpiperazin-1-yl)phenyl]-N4-[2-(6-methyl-2-pyridyl)pyrimidin-4-yl]pyrimidine-2,4-diamine] | 25.1 to 158

Row | Compound | Ki [1] [nM] | IC50 [2] [nM]
22 | Cc1cccc(-c2nccc(Nc3ccnc(Nc4ccc(C)c(CN5C6CCC5CNC6)c4)n3)n2)n1 [Compound 458, N2-[3-(3,8-diazabicyclo[3.2.1]octan-8-ylmethyl)-4-methyl-phenyl]-N4-[2-(6-methyl-2-pyridyl)pyrimidin-4-yl]pyrimidine-2,4-diamine] | 0.0398 to 0.316 | 25.1 to 158
